# From patent publication US6541453B2, “Peptide derivatives” (Syngenta Limited, priority 1996, dated 2003)
# Like-named read-outs stand apart in the source and are kept apart here.
# Legend:
# [1] = molecular target: T1, HLA-DR1 (Homo sapiens, UniProt P01903+P01911, A100R/D57E/F55L/F60I/F76Y/I96L/L162R/M171V/P40L/Q125E/R42F/V115G/Y59C); assay: Variant to Test A: peptide selectivity binding assay
# T1 construct: endogenous in cells; host or cells: Hom 2 cell line
# Experimental: The method used was a modification of that described by Gorga et al, 1987, J.Biol.Chem. 262, 16087-16094. Human HLA-DR antigens were purified from various cell lines by immunoaffinity chromatography. Briefly, 1×10^9-5×10^9 pelleted cells of the appropriate cell line selected from Hom 2 (source of DR1), BBF (source of DR2), AVL-B (source of DR3), JAH (source of DR4Dw4), JHAF (source of DR4Dw13) or PE117 (source of DR4Dwl4) were solubilised at approximately 4° C. in 50 ml of 5 mM EDTA (sodium salt), 50 mM Tris-HCL pH 7.4, 2% NP40, 150 mM NaCl, 1 mM iodoacetamide, 1 mM PMSF, by homogenisation with 10 strokes of a teflon glass homogeniser. […] Protein content was determined by a Biorad protein assay and purity by SDS-PAGE electrophoresis.
# 200 nM biotin-FHA307-320 in phosphate buffered saline (PBS) was incubated with either purified HLA-DR1, DR2, DR4Dw4, DR4Dw13 or DR4Dwl4 (2-20 μg/ml) in V-well microtitre plates (Nunc) with or without inhibitor peptides in assay buffer (PBS, 0.01% NP40 (Sigma.)) For DR3 inhibition, 400 nM Biotin-Ahx-(D)Ala-Ala-Ala-Cha-[…](D)Ala-OH [SEQ ID No. 14] was incubated with purified DR3 (20 μg/ml.), and incubated as above. After 48 hours, the incubates were treated, and absorbance readings taken as described in Test A. The inhibitory activity of peptides, expressed as IC50 values, was calculated using Microcal Origin software on a PC.
# [2] = Peptide content of extruded polymer depot formulation (loss on extrusion); assay type: physicochemical
# Experimental: About 20 mg of peptide is accurately weighed and sufficient polymer (50/50% molar poly(D,L-lactic acid/glycolic acid) copolymer of approximate weight average molecular weight 20 kD and approximate polydispersity of 1.7 as determined by size exclusion chromatography relative to polystyrene standards) added to produce an approximate 20% w/w mixture. This is dissolved in anhydride-free glacial acetic acid to produce an approximate 10% w/v solution. The solution is freeze dried and the resulting freeze dried product is stored under vacuum prior to use.
# About 100 mg of freeze dried material is loaded into the barrel of a small laboratory extruder and the plunger pushed down to consolidate the sample. The extruder is heated to between 90 and 95 ° C. and held at this temperature for 10 minutes before the freeze dried material is extruded under pressure to give a cylindrical extrudate of approximately 1 mm in diameter. […]
# Each standard is filtered through a 5 μm Millex PTFE filter and an aliquot of filtrate, together with aliquots of the solutions A, analysed by HPLC using duplicate sample injections. The peptide content of the extruded polymer depot formulation of peptide is calculated from the concentration of peptide in solutions A, which is determined by comparing the area of the peptide peak in solutions A with the area of the peptide peak from the standard solutions.
# [3] = Aqueous stability of peptide in McIlvaine's citric acid-phosphate buffer
# [4] = Degradation of peptide on in vitro release from an extruded polymer depot
IC50 [1] [µM],aqueous stability (pH3),aqueous stability (pH7.6),aqueous stability ([3]; pH3),aqueous stability ([3]; pH7.6),degradation on release from depot formulation [4],Structure (SMILES),loss due to degradation on extrusion [2]
> 100,good aqueous stability,good aqueous stability,,,,"COCCOCCOCCN(CCOCCOCCOC)C(=O)CN(CC(=O)N(CCOCCOCCOC)CCOCCOCCOC)C(=O)C[C@H](NC(=O)[C@H](C)NC(=O)[C@H](C)NC(=O)[C@H](CCCNC(=N)N)NC(=O)CCCCc1ccccc1)C(=O)N[C@H](C(=O)N[C@@H]1CCN([C@@H](C)C(=O)N[C@@H](C)C(=O)Nc2ccc(CC(N)=O)cc2)C1=O)[C@@H](C)O [Example 6, Phv-Arg-Ala-Ala-II-Thr-IIIa-Ala-Papa-NH2]",minimal loss due to degradation on extrusion
> 100,,,good aqueous stability,good aqueous stability,minimal degradation on release,"COCCN(CCOC)C(=O)CN(CC(=O)N(CCOC)CCOC)C(=O)C[C@H](NC(=O)[C@H](C)NC(=O)[C@H](CCCNC(=N)N)NC(=O)[C@H](C)NC(=O)CCCCc1ccccc1)C(=O)N[C@H](C(=O)N[C@@H]1CCN([C@@H](C)C(=O)N[C@@H](C)C(=O)Nc2ccc(CC(N)=O)cc2)C1=O)[C@@H](C)O [Example 3, Phv-Ala-Arg-Ala-II-Thr-IIIa-Ala-Papa-NH2]",minimal loss due to degradation on extrusion
